Results taken from paper PMC11106739, “Discovery and Derivatization of Tridecaptin Antibiotics with Altered Host Specificity and Enhanced Bioactivity” (ACS Chemical Biology, 2024).
Converted amounts (≈) assume the structure as drawn. Where a SMILES comes first, the peptide text is derived from it. [ ]: non-standard residue; d: D form. The star is where a group is joined. d(aIle) = CC[C@H](C)[C@@H](N)C(=O)O; dDab = NCC[C@@H](N)C(=O)O; Octanoyl = CCCCCCCC(=O)*; Dab = NCC[C@H](N)C(=O)O

Columns and labels:
[1] = system: Gram-positive bacteria (Staphylococcus aureus, Enterococcus faecalis, Enterococcus faecium); experiment: MIC, summary over Gram-positive strains; format: cell-based; settings: at a concentration of 64 μg/mL; summary of Table 2
Description: (§1) All minimum inhibitory concentrations (MICs) were determined according to the Clinical and Standards Laboratory Institute (CLSI) guidelines. In brief, agar plates were inoculated from glycerol stocks and incubated overnight at 35 °C. Peptide DMSO stocks were dispensed into 96-well round-bottom plates using a TECAN D300e dispenser. Colistin sulfate (Sigma-Aldrich) was dissolved in water and serially diluted in a cation-adjusted Mueller Hinton broth (10 μL per well). Final concentrations of the test compounds were 0.06 to 64 μg/mL. Inocula were prepared by direct colony suspension in NaCl at 0.5 MacFarland, which was further diluted 200-fold in cation-adjusted Mueller Hinton broth for a target inoculum of 2 × 10^5 colony forming units (CFUs)/mL. 100 μL portion of the prepared inoculum was added to each well of the prepared plates containing the test compounds. Plates were sealed with parafilm and incubated for 20 h at 35 °C. Images of all plates were recorded, and MIC was assessed visually.

[2] = system: Gram-negative ESKAPE pathogens; format: cell-based; settings: 20 h
Description: as §1

[3] = system: ATCC 25922; format: cell-based, Enterococcus faecalis; settings: ATCC 25922, 20 h
Description: as §1

[4] = system: E. faecalis ATCC 29212; format: cell-based, Enterococcus faecalis; settings: ATCC 29212, 20 h
Description: as §1

[5] = system: S. aureus 1126387; format: cell-based, Staphylococcus aureus; settings: 1126387, 20 h
Description: as §1

[6] = system: S. aureus UAMS-1625; format: cell-based, Staphylococcus aureus; settings: S. aureus UAMS-1625 (BV18); CLSI broth dilution, cation-adjusted Mueller Hinton broth, 20 h, 35 °C, read visually
Description: as §1

[7] = system: S. aureus ATCC 29213; format: cell-based, Staphylococcus aureus; settings: ATCC 29213, 20 h
Description: as §1

[8] = system: Rabbit red blood cells; experiment: Hemolysis assay; format: cell-based; settings: rabbit red blood cells in PBS, 37 °C, 1 h, absorbance at 405 nm, normalization to the Triton X-100 control; 0.25 to 128 μg/mL tested
Description: Peptides, dissolved in DMSO, were dispensed into 96-well round-bottom microplates using a TECAN D300e dispenser and subsequently diluted with 100 μL of PBS. PBS or 2% Triton X-100 was used as negative and positive controls, respectively. Rabbit red blood cells (BioConcept) were diluted in PBS to a final concentration of 2%, and 100 μL was added to each well of the prepared 96-well plates. The final concentration of the test compounds was 0.25 to 128 μg/mL. Plates were incubated at 37 °C for 1 h and afterward subjected to centrifugation at 1000g for 5 min. Then, 30 μL of supernatant was transferred to a new round-bottom plate, and absorbance was measured at 405 nm (TECAN Infinite F200). EC50s were calculated after blank subtraction and normalization to the Triton control.

[9] = system: P. aeruginosa 1218019; format: cell-based, Pseudomonas aeruginosa; settings: 1218019, 20 h
Description: as §1

[10] = system: P. aeruginosa 1226072; format: cell-based, Pseudomonas aeruginosa; settings: 1226072, 20 h
Description: as §1

[11] = system: P. aeruginosa PAO1; format: cell-based, Pseudomonas aeruginosa; settings: PAO1, 20 h
Description: as §1

[12] = system: A. baumannii HUMC1; format: cell-based, Acinetobacter baumannii; settings: HUMC1, 20 h
Description: as §1

[13] = system: A. baumannii ATCC 17978; format: cell-based, Acinetobacter baumannii; settings: ATCC 17978, 20 h
Description: as §1

[14] = system: A. baumannii IHMA 777621; format: cell-based, Acinetobacter baumannii; settings: IHMA 777621, 20 h
Description: as §1

[15] = system: K. pneumoniae 1228586; format: cell-based, Klebsiella pneumoniae; settings: 1228586, 20 h
Description: as §1

[16] = system: K. pneumoniae 1227947; format: cell-based, Klebsiella pneumoniae; settings: 1227947, 20 h
Description: as §1

[17] = system: K. pneumoniae ATCC 13883; format: cell-based, Klebsiella pneumoniae; settings: ATCC 13883, 20 h
Description: as §1

[18] = system: E. faecium ATCC 51559; format: cell-based, Enterococcus faecium; settings: ATCC 51559, 20 h
Description: as §1

[19] = system: E. faecium IHMA 890472; format: cell-based, Enterococcus faecium; settings: IHMA 890472, 20 h
Description: as §1

[20] = system: HepG2 cells; experiment: Cytotoxicity determination (CellTiter-Glo); format: cell-based; settings: HepG2, medium without serum, 24 h, normalization to the untreated control, 1 to 128 μg/mL tested
Description: HepG2 cells were grown in EMEM (Sigma) supplemented with 2 mM glutamine and 10% fetal bovine serum (Fisher) at 37 °C, 5% CO2. 20′000 cells per well were seeded into clear tissue culture-treated 96-well plates and incubated for 24 h. Peptides, dissolved in DMSO, were dispensed into 96 deep well plates (TECAN D300e dispenser) and diluted to a final concentration of 1 to 128 μg/mL using fresh medium without serum. The next day, the old media were removed from the cells, and 200 μL of the prepared compound dilutions was added per well. Plates were incubated for another 24 h before assessing the cell viability using the CellTiter-Glo kit (Promega) according to the manufacturer’s protocol. IC50s were calculated after normalization to the untreated control.

[21] = system: E. coli ATCC 25922; format: cell-based, Escherichia coli; settings: ATCC 25922, 20 h
Description: as §1

[22] = system: E. coli 1220120; format: cell-based, Escherichia coli; settings: 1220120, 20 h
Description: as §1

[23] = system: E. coli 1214245; format: cell-based, Escherichia coli; settings: 1214245, 20 h
Description: as §1

Row | SMILES | MIC [3] [µg/mL] | MIC [4] [µg/mL] | MIC [5] [µg/mL] | MIC [6] [µg/mL] | MIC [7] [µg/mL] | Hemolysis EC50 [8] [µg/mL] | MIC [9] [µg/mL] | MIC [10] [µg/mL] | MIC [11] [µg/mL] | MIC [12] [µg/mL] | MIC [13] [µg/mL] | MIC [14] [µg/mL] | MIC [15] [µg/mL] | MIC [16] [µg/mL] | MIC [17] [µg/mL] | MIC [18] [µg/mL] | MIC [19] [µg/mL] | IC50 on HepG2 w/o FCS [20] [µg/mL] | MIC [21] [µg/mL] | MIC [22] [µg/mL] | also measured
1 | CCCCCCCC(=O)N[C@@H](C(=O)N[C@H](CCN)C(=O)NCC(=O)N[C@H](CO)C(=O)N[C@H](Cc1c[nH]c2ccccc12)C(=O)N[C@@H](CO)C(=O)N[C@@H](CCN)C(=O)N[C@H](CCN)C(=O)N[C@@H](C)C(=O)N[C@@H](CCC(=O)O)C(=O)N[C@H](C(=O)N[C@@H](C(=O)N[C@@H](C)C(=O)O)[C@@H](C)CC)C(C)C)C(C)C [Oct-Ala9] (Octanoyl-[dV][dDab]G[dS][dW]S[Dab][dDab]AEV[d(aIle)]A-OH) | >64 | >64 | >64 | >64 | >64 | >128 | >64 | 32 (≈ 22.1 µM) | 64 (≈ 44.3 µM) | >64 | >64 | >64 | 8 (≈ 5.54 µM) | 16 (≈ 11.1 µM) | 8 (≈ 5.54 µM) | >64 | >64 | >128 | 16 (≈ 11.1 µM) | 8 (≈ 5.54 µM) | antibacterial activity against Gram-positive bacteria [1]: no antibacterial activity; MICs, range over Gram-negative pathogens [2]: 8 to 64 µg/mL; MIC [23]: 16 µg/mL (≈ 11.1 µM)
2 | CCCCCCCC(=O)N[C@@H](C(=O)N[C@H](CCN)C(=O)NCC(=O)N[C@H](CO)C(=O)N[C@H](Cc1c[nH]c2ccccc12)C(=O)N[C@@H](CO)C(=O)N[C@@H](CCN)C(=O)N[C@H](CCN)C(=O)N[C@@H](CCN)C(=O)N[C@@H](CCC(=O)O)C(=O)N[C@H](C(=O)N[C@@H](C(=O)N[C@@H](C)C(=O)O)[C@@H](C)CC)C(C)C)C(C)C [Oct-Dab9] (Octanoyl-[dV][dDab]G[dS][dW]S[Dab][dDab][Dab]EV[d(aIle)]A-OH) | >64 | >64 | >64 | >64 | >64 | >128 | >64 | 8 (≈ 5.43 µM) | >64 | >64 | >64 | >64 | >64 | >64 | >64 | >64 | >64 | >128 | >64 | >64 | antibacterial activity against Gram-positive bacteria [1]: no antibacterial activity; MICs, range over Gram-negative pathogens [2]: 8 to 64 µg/mL; MIC [23]: >64 µg/mL
3 | CCCCCCCC(=O)N[C@@H](C(=O)N[C@H](CCN)C(=O)NCC(=O)N[C@H](CO)C(=O)N[C@H](Cc1c[nH]c2ccccc12)C(=O)N[C@@H](CO)C(=O)N[C@@H](CCN)C(=O)N[C@H](CCN)C(=O)N[C@@H](CCC(=O)O)C(=O)N[C@@H](CCC(=O)O)C(=O)N[C@H](C(=O)N[C@@H](C(=O)N[C@@H](C)C(=O)O)[C@@H](C)CC)C(C)C)C(C)C [Oct-Glu9] (Octanoyl-[dV][dDab]G[dS][dW]S[Dab][dDab]EEV[d(aIle)]A-OH) | >64 | >64 | >64 | >64 | >64 | >128 | >64 | >64 | >64 | >64 | >64 | >64 | >64 | >64 | >64 | >64 | >64 | >128 | >64 | 64 (≈ 42.6 µM) | antibacterial activity against Gram-positive bacteria [1]: no antibacterial activity; MICs, range over Gram-negative pathogens [2]: 8 to 64 µg/mL; MIC [23]: >64 µg/mL
4 | CCCCCCCC(=O)N[C@@H](C(=O)N[C@H](CCN)C(=O)NCC(=O)N[C@H](CO)C(=O)N[C@H](Cc1c[nH]c2ccccc12)C(=O)N[C@@H](CO)C(=O)N[C@@H](CCN)C(=O)N[C@H](CCN)C(=O)N[C@H](C(=O)N[C@@H](CCC(=O)O)C(=O)N[C@H](C(=O)N[C@@H](C(=O)N[C@@H](C)C(=O)O)[C@@H](C)CC)C(C)C)C(C)C)C(C)C [Oct-Val9] (Octanoyl-[dV][dDab]G[dS][dW]S[Dab][dDab]VEV[d(aIle)]A-OH) | >64 | 64 (≈ 43.5 µM) | >64 | >64 | >64 | >128 | 16 (≈ 10.9 µM) | 16 (≈ 10.9 µM) | 64 (≈ 43.5 µM) | 32 (≈ 21.7 µM) | 32 (≈ 21.7 µM) | 32 (≈ 21.7 µM) | 8 (≈ 5.43 µM) | 8 (≈ 5.43 µM) | 2 (≈ 1.36 µM) | 64 (≈ 43.5 µM) | >64 | >128 | 4 (≈ 2.72 µM) | 4 (≈ 2.72 µM) | MIC [23]: 4 µg/mL (≈ 2.72 µM)
